Assay [1] deals with T1, human GalNAc-T2 (UDP-GalNAc:polypeptide N-acetylgalactosaminyltransferase T2) isolated truncated lectin domain (T2ld), HIS-tagged, amino acid residues 408-571 o (Homo sapiens, UniProt Q10471).
T1 sequence (Q10471 408-571): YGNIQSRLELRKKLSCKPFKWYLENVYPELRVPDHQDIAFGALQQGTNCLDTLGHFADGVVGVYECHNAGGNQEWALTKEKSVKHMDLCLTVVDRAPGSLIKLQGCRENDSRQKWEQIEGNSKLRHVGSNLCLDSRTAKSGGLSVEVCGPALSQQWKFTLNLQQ
It is filed as binding. An excerpt:
In order to minimize the size and functional complexity of GalNAc-transferase lectins to be used as probes for binding studies, we used multiple sequence alignment analysis to predict and design suitable expression constructs for isolated lectin domains (FIG. 2). In the present invention a direct binding assay was developed using isolated lectin domains of GalNAc-T4 and -T2 with minimal size (FIG. 5). […] The lectin Helix Pomatia (HP) was used as a control plant lectin with known binding specificity for […].
Direct binding ELISA assay was developed as follows: Polystyrene microtiter plates (Maxisorb, Nunc, Denmark) were coated with peptides or enzymatically glycosylated glycopeptides in PBS overnight at 4° C. Plates were washed and blocked with 0.1% Tween20 and 0.2% BSA in PBS for 1 h at room temperature, followed by incubation with biotinylated proteins in PBS with 0.05% Tween20 for 2 h at room temperature. After four washes with PBS, plates were incubated with 1:2,000 dilution streptavidin-HRP (Sigma) in PBS for 30 min at room temperature and washed four times with PBS. Development was performed with 0.5 mg/ml o-phenylenediamine and 0.02% H2O2 at room temperature for 15 min, and reaction stopped by adding 100 μl/well of 0.5 N H2SO4. Competitive inhibition assays were done at end-point titers of GalNAc-transferase proteins with one hour preincubations with inhibitor.
In binding studies using lectins without biotinylation antibodies to the HIS-tag and the T7-tag, or in some experiments antibodies raised to GalNAc-T2 and -T4 enzymes were used to detect binding.
Inhibition experiments were used to further define the binding specificity of GalNAc-T2 and -T4 secreted soluble enzymes as well as lectin domains compared to Helix Pomatia lectin (Table IV).
The ligand target used in this Example is a GalNAc-MUC1 glycopeptide produced enzymatically from synthetic peptides.

The test system of assay [2] is intracellular MUC5AC, HT29MTX cells. Kind of assay: Intracellular MUC5AC by immunofluorescence staining of HT29MTX cells. It is filed as cell-based, human. The following applies: 5 mM, CLH2 antibody. The text has this:
FIG. 18 illustrates immuno-fluorescence staining of HT29MTX cells treated with inhibitors as indicated and stained with the anti-MUC5AC monoclonal antibody, CLH2.
In order to evaluate GalNAcβ-benzyl as an inhibitor of mucin glycosylation and secretion we used the cultured colon carcinoma cells of mucin secreting phenotypes: HT-29 metotrexate (MTX) cells selected from the HT-29 cell line by culture in the presence of MTX (kind gift from G. Huet, France). The HT-29 MTX cells were selected to yield a goblet cell like phenotype with constitutive production of MUC5AC. In order to ensure proper goblet cell differentiation the HT29MTX cell line were continuously grown up to 21 days in the presence of 5 mM GalNAcα-benzyl, 5 mM GalNAcβ-benzyl, 5 mM GlcNAcα-benzyl and without inhibitor using culture conditions as described in Hennebicq-Reig et al. (Permanent exposure of mucin-secreting HT-29 cells to benzyl-N-acetyl-alpha-D-galactosaminide induces abnormal O-glycosylation of mucins and inhibits constitutive and stimulated MUC5AC secretion. Biochem J. 1998; 334:283-95). […] Furthermore the viscosity of the media from cells with and without inhibitor was evaluated using viscosity micro-measurement.

“Also recorded” adds a separate entry of the source.

With `CC(=O)N[C@H]1[C@@H](OCc2ccccc2)O[C@H](CO)[C@H](O)[C@@H]1O` [GalNAcα-benzyl, benzyl-N-acetyl-alpha-D-galactosaminide], the “inhibition of GalNAc-T2 lectin domain binding (in words)” value in assay [1] is “inhibited binding to the same degree”. Further, in assay [2], the “intracellular staining of MUC5AC / storage phenotype” value is reported as “storage phenotype with increased intracellular staining of MUC5AC”.
For `CC(=O)N[C@H]1[C@H](OCc2ccccc2)O[C@H](CO)[C@H](O)[C@@H]1O` [GalNAcβ-benzyl] the same measures were “inhibited binding to the same degree” and “did not lead to a storage disease phenotype; also recorded: clearly diminished intracellular staining of MUC5AC”.

These data come from patent US20080038809A1, “ISOLATED LECTIN POLYPEPTIDES CONSISTING OF TRUNCATED […] UDP-GalNAc:POLYPEPTIDE N- ACETYLGALACTOSAMINYLTRANSFERASES” (GLYCOZYM APS, priority 2002, published 2008).
